{
  "source": "patent US12059393B2",
  "about": "“Compositions for topical treatment of radiation dermatitis” (Akos Biosciences, Inc, priority 2022, dated 2024)",
  "key": {"[1]": {"tested_on": "acute radiation-induced dermatitis", "assay": "Blinded clinical dermatitis scoring in mouse radiation dermatitis model", "assay_type": "in vivo, Balb/c mice", "design": "key to Dermatitis score (mean): dermatitis scale 0 to 5, 1.0-unit increments", "conditions": "for Dermatitis score (mean): Group 4 (30 mg/mL CBD)", "procedure": "A study was performed on mice to determine the efficacy of topically-dosed CBD in an olive oil vehicle for the treatment of acute radiation-induced dermatitis. Three different CBD dosages were used— 30 mg/mL (3 wt %), 120 mg/mL (12 wt %), and 250 mg/mL (25 wt %).\n144 female Balb/c mice with an average starting body weight (±SEM) of 17.96±0.12 grams were randomized into six (6) groups of 24 animals each, as follows:\nThe control group (Group 1) was not irradiated. The animals in Groups 2-6 were anesthetized via a single intraperitoneal injection of xylazine and ketamine prior to being administered a single dose of 30 Grays (Gy) of radiation directed at a 2 cm×4 cm patch of shaved dorsal skin on Day 0. Radiation was generated by a 160 kVp (15-ma) X-ray source at a focal distance of 10 cm, hardened with a 0.35 mm Cu filtration system at a rate of approximately 3.2 Gy/minute.\nDosing for animals in Groups 3-6 began on Day 0 immediately after radiation. Treatments were administered topically (0.1 mL per animal) daily from Days 0-28.\nStarting on Day 8 and continuing every other day thereafter (Days 8-28), each animal was evaluated for skin redness and dermatitis, and photographed for subsequent blinded scoring of dermatitis at the completion of the study. Body weight was taken daily.\nDermatitis was measured by blinded scoring of photographs at the end of the study. Two independent observers graded the photographs, and results were reported on a scale of 0 to 5 in 1.0 unit increments. The scale is described in the table below:\nData were evaluated using one-way ANOVA with Dunnett's multiple comparisons test to compare all groups to the vehicle control group using GraphPad Prism 8.4.3 (La Jolla, CA Duration of dermatitis data was evaluated using the Chi-square test to compare all groups to the vehicle-control group and radiation only group using SigmaPlot 11.0 (Systat Software, Inc.). Statistical significance was achieved when p<0.05.\nThe following table provides information on the duration of moderate dermatitis, which is defined as the number of days on which scores were at least 2\nBold values indicate a decrease (improvement), and underlined values indicate an increase (worsening)."}, "[2]": {"tested_on": "acute radiation-induced dermatitis", "assay": "Blinded clinical dermatitis scoring in mouse radiation dermatitis model", "assay_type": "in vivo, Balb/c mice", "conditions": "150 mg/mL CBD"}, "[3]": {"conditions": "120 mg/mL CBD, 148 total animal days"}, "[4]": {"conditions": "150 mg/mL CBD, 147 total animal days"}},
  "data": [
    {"compound": "C=C(C)[C@@H]1CCC(C)=C[C@H]1c1c(O)cc(CCCCC)cc1O", "note": "[CBD, 2-[(1R,6R)-6-Isopropenyl-3-methylcyclohex-2-en-1-yl]-5-pentylbenzene-1,3-diol]", "values": [
      {"measurement": "Percentage of Animals with Moderate Dermatitis (≥2)", "setting": "[1]; 120 mg/mL CBD, Day 12", "result": 93.8, "unit": "%"},
      {"measurement": "Percentage of Animals with Moderate Dermatitis (≥3)", "setting": "[1]; 120 mg/mL CBD, Day 12", "result": 50, "unit": "%"},
      {"measurement": "Percentage of Animals with Moderate Dermatitis (≥2)", "setting": "[1]; 120 mg/mL CBD, Day 14", "result": 100, "unit": "%"},
      {"measurement": "Percentage of Animals with Moderate Dermatitis (≥3)", "setting": "[1]; 120 mg/mL CBD, Day 14", "result": 75, "unit": "%"},
      {"measurement": "Percentage of Animals with Moderate Dermatitis (≥2)", "setting": "[1]; 120 mg/mL CBD, Day 16", "result": 83.3, "unit": "%"},
      {"measurement": "Percentage of Animals with Moderate Dermatitis (≥3)", "setting": "[1]; 120 mg/mL CBD, Day 16", "result": 25, "unit": "%"},
      {"measurement": "Percentage of Animals with Moderate Dermatitis (≥2)", "setting": "[1]; 120 mg/mL CBD, Day 18", "result": 83.3, "unit": "%"},
      {"measurement": "Percentage of Animals with Moderate Dermatitis (≥3)", "setting": "[1]; 120 mg/mL CBD, Day 18", "result": 8.3, "unit": "%"},
      {"measurement": "Percentage of Animals with Moderate Dermatitis (≥2)", "setting": "[1]; 120 mg/mL CBD, Day 20", "result": 58.3, "unit": "%"},
      {"measurement": "Percentage of Animals with Moderate Dermatitis (≥3)", "setting": "[1]; 120 mg/mL CBD, Day 20", "result": 0, "unit": "%"},
      {"measurement": "Percentage of Animals with Moderate Dermatitis (≥2)", "setting": "[1]; 120 mg/mL CBD, Day 22", "result": 33.3, "unit": "%"},
      {"measurement": "Percentage of Animals with Moderate Dermatitis (≥3)", "setting": "[1]; 120 mg/mL CBD, Day 22", "result": 0, "unit": "%"},
      {"measurement": "Percentage of Animals with Moderate Dermatitis (≥2)", "setting": "[1]; 120 mg/mL CBD, Day 24", "result": 33.3, "unit": "%"},
      {"measurement": "Percentage of Animals with Moderate Dermatitis (≥3)", "setting": "[1]; 120 mg/mL CBD, Day 24", "result": 0, "unit": "%"},
      {"measurement": "Percentage of Animals with Moderate Dermatitis (≥2)", "setting": "[1]; 120 mg/mL CBD, Day 26", "result": 33.3, "unit": "%"},
      {"measurement": "Percentage of Animals with Moderate Dermatitis (≥3)", "setting": "[1]; 120 mg/mL CBD, Day 26", "result": 0, "unit": "%"},
      {"measurement": "Percentage of Animals with Moderate Dermatitis (≥2)", "setting": "[1]; 120 mg/mL CBD, Day 28", "result": 8.3, "unit": "%"},
      {"measurement": "Percentage of Animals with Moderate Dermatitis (≥3)", "setting": "[1]; 120 mg/mL CBD, Day 28", "result": 0, "unit": "%"},
      {"measurement": "Days <2 (animal days)", "setting": "[1]; [3]", "result": 60},
      {"measurement": "Days ≥2 (duration of moderate dermatitis, animal days)", "setting": "[1]; [3]", "result": 88},
      {"measurement": "Days <2 (animal days)", "setting": "[1]; [4]", "result": 57},
      {"measurement": "Days ≥2 (duration of moderate dermatitis, animal days)", "setting": "[1]; [4]", "result": 90},
      {"measurement": "Percentage of Animals with Moderate Dermatitis (≥2)", "setting": "[1]; 250 mg/mL CBD, Day 8", "result": 12.5, "unit": "%"},
      {"measurement": "Percentage of Animals with Moderate Dermatitis (≥3)", "setting": "[1]; 250 mg/mL CBD, Day 8", "result": 6.3, "unit": "%"},
      {"measurement": "Percentage of Animals with Moderate Dermatitis (≥2)", "setting": "[1]; 250 mg/mL CBD, Day 10", "result": 75, "unit": "%"},
      {"measurement": "Percentage of Animals with Moderate Dermatitis (≥3)", "setting": "[1]; 250 mg/mL CBD, Day 10", "result": 12.5, "unit": "%"},
      {"measurement": "Percentage of Animals with Moderate Dermatitis (≥2)", "setting": "[1]; 250 mg/mL CBD, Day 12", "result": 100, "unit": "%"},
      {"measurement": "Percentage of Animals with Moderate Dermatitis (≥3)", "setting": "[1]; 250 mg/mL CBD, Day 12", "result": 62.5, "unit": "%"},
      {"measurement": "Percentage of Animals with Moderate Dermatitis (≥2)", "setting": "[1]; 250 mg/mL CBD, Day 14", "result": 93.8, "unit": "%"},
      {"measurement": "Percentage of Animals with Moderate Dermatitis (≥3)", "setting": "[1]; 250 mg/mL CBD, Day 14", "result": 93.3, "unit": "%"},
      {"measurement": "Percentage of Animals with Moderate Dermatitis (≥2)", "setting": "[1]; 250 mg/mL CBD, Day 16", "result": 93.7, "unit": "%"},
      {"measurement": "Percentage of Animals with Moderate Dermatitis (≥3)", "setting": "[1]; 250 mg/mL CBD, Day 16", "result": 75, "unit": "%"},
      {"measurement": "Percentage of Animals with Moderate Dermatitis (≥2)", "setting": "[1]; 250 mg/mL CBD, Day 18", "result": 83.3, "unit": "%"},
      {"measurement": "Percentage of Animals with Moderate Dermatitis (≥3)", "setting": "[1]; 250 mg/mL CBD, Day 18", "result": 58.3, "unit": "%"},
      {"measurement": "Percentage of Animals with Moderate Dermatitis (≥2)", "setting": "[1]; 250 mg/mL CBD, Day 20", "result": 66.7, "unit": "%"},
      {"measurement": "Percentage of Animals with Moderate Dermatitis (≥3)", "setting": "[1]; 250 mg/mL CBD, Day 20", "result": 25, "unit": "%"},
      {"measurement": "Percentage of Animals with Moderate Dermatitis (≥2)", "setting": "[1]; 250 mg/mL CBD, Day 22", "result": 33.3, "unit": "%"},
      {"measurement": "Percentage of Animals with Moderate Dermatitis (≥3)", "setting": "[1]; 250 mg/mL CBD, Day 22", "result": 0, "unit": "%"},
      {"measurement": "Percentage of Animals with Moderate Dermatitis (≥2)", "setting": "[1]; 250 mg/mL CBD, Day 24", "result": 50, "unit": "%"},
      {"measurement": "Percentage of Animals with Moderate Dermatitis (≥3)", "setting": "[1]; 250 mg/mL CBD, Day 24", "result": 0, "unit": "%"},
      {"measurement": "Percentage of Animals with Moderate Dermatitis (≥2)", "setting": "[1]; 250 mg/mL CBD, Day 26", "result": 50, "unit": "%"},
      {"measurement": "Percentage of Animals with Moderate Dermatitis (≥3)", "setting": "[1]; 250 mg/mL CBD, Day 26", "result": 0, "unit": "%"},
      {"measurement": "Percentage of Animals with Moderate Dermatitis (≥2)", "setting": "[1]; 250 mg/mL CBD, Day 28", "result": 0, "unit": "%"},
      {"measurement": "Percentage of Animals with Moderate Dermatitis (≥3)", "setting": "[1]; 250 mg/mL CBD, Day 28", "result": 0, "unit": "%"},
      {"measurement": "Dermatitis score (mean)", "setting": "[1]; Day 8", "result": 0.88},
      {"measurement": "Dermatitis score (mean)", "setting": "[1]; Day 10", "result": 1.63},
      {"measurement": "Dermatitis score (mean)", "setting": "[1]; Day 12", "result": 1.81},
      {"measurement": "Dermatitis score (mean)", "setting": "[1]; Day 14", "result": 2.25},
      {"measurement": "Dermatitis score (mean)", "setting": "[1]; Day 16", "result": 1.92},
      {"measurement": "Dermatitis score (mean)", "setting": "[1]; Day 18", "result": 1.42},
      {"measurement": "Dermatitis score (mean)", "setting": "[1]; Day 20", "result": 1.08},
      {"measurement": "Dermatitis score (mean)", "setting": "[1]; Day 22", "result": 1.17},
      {"measurement": "Dermatitis score (mean)", "setting": "[1]; Day 24", "result": 1.08},
      {"measurement": "Dermatitis score (mean)", "setting": "[1]; Day 26", "result": 1.00},
      {"measurement": "Dermatitis score (mean)", "setting": "[1]; Day 28", "result": 0.92},
      {"measurement": "Percentage of days with moderate dermatitis compared to the irradiated group (Group 2)", "setting": "[1]; all CBD-treated groups (Groups 4, 5, 6)", "result": "significantly lower"},
      {"measurement": "% Days ≥2", "setting": "[2]", "result": 61.22, "unit": "%"}
    ]}
  ]
}
